Results from ChEMBL document CHEMBL1671739, “Reservoir of antimicrobial resistance determinants associated with horizontal gene transfer in clinical isolates of the genus Shewanella” (2010).
Values after ≈ are worked out from the molar mass of the structure shown.

Experiments:
Format in all cases: functional
[1] = tested on: Shewanella putrefaciens; assay: Antimicrobial activity against Shewanella putrefaciens Sp117 harboring intI1,sul1,sul2 and beta-lactamase OXA-48 like genes by CLSI method
[2] = tested on: Shewanella putrefaciens; assay: Antimicrobial activity against Shewanella putrefaciens Sp95 harboring intI1,sul1,sul2 and beta-lactamase OXA-48 like genes by CLSI method
[3] = tested on: Shewanella putrefaciens; assay: Antimicrobial activity against Shewanella putrefaciens Sp31 harboring intI1 and beta-lactamase OXA-48 like genes by CLSI method
[4] = tested on: Shewanella algae; assay: Antimicrobial activity against Shewanella algae Sa9 harboring intI1, intI2, sul1 and sul2 genes by CLSI method
[5] = tested on: Shewanella algae; assay: Antimicrobial activity against Shewanella algae Sa78 harboring sul2 gene by CLSI method
[6] = tested on: Shewanella algae; assay: Antimicrobial activity against Shewanella algae Sa74 harboring intI1, intI2, sul1 and sul2 genes by CLSI method
[7] = tested on: Shewanella algae; assay: Antimicrobial activity against Shewanella algae Sa10 harboring intI1, intI2, sul1 and sul2 genes by CLSI method
[8] = tested on: Shewanella algae; assay: Antimicrobial activity against Shewanella algae Sa82 harboring intI1, intI2, sul1 and sul2 genes by CLSI method
[9] = tested on: Shewanella algae; assay: Antimicrobial activity against Shewanella algae Sa392 harboring intI1, intI2, sul1 and sul2 genes by CLSI method
[10] = tested on: Shewanella algae; assay: Antimicrobial activity against Shewanella algae Sa2 harboring intI1, intI2 and sul1 genes by CLSI method

Structure (SMILES)	MIC [1] [µg/mL]	MIC [2] [µg/mL]	MIC [3] [µg/mL]	MIC [4] [µg/mL]	MIC [5] [µg/mL]	MIC [6] [µg/mL]	MIC [7] [µg/mL]	MIC [8] [µg/mL]	MIC [9] [µg/mL]	MIC [10] [µg/mL]
C[C@@H](O)[C@H]1C(=O)N2C(C(=O)O)=C(S[C@@H]3CN[C@H](C(=O)N(C)C)C3)[C@H](C)[C@H]12 [MEROPENEM]	4 (≈ 10.4 µM)	0.25 (≈ 0.652 µM)	0.125 (≈ 0.326 µM)	0.125 (≈ 0.326 µM)	0.25 (≈ 0.652 µM)	0.0094 (≈ 0.0245 µM)	1 (≈ 2.61 µM)	0.38 (≈ 0.991 µM)	1 (≈ 2.61 µM)	0.032 (≈ 0.0834 µM)
C[C@@H](O)[C@H]1C(=O)N2C(C(=O)O)=C(SCCNC=N)C[C@H]12 [IMIPENEM ANHYDROUS]	1 (≈ 3.34 µM)	0.5 (≈ 1.67 µM)	0.25 (≈ 0.835 µM)	2 (≈ 6.68 µM)	4 (≈ 13.4 µM)	4 (≈ 13.4 µM)	8 (≈ 26.7 µM)	0.25 (≈ 0.835 µM)	4 (≈ 13.4 µM)	0.25 (≈ 0.835 µM)
